From ChEMBL document CHEMBL1157186, “Characterization of chemical components in extracts from Si-wu decoction with proliferation-promoting effects on rat mesenchymal stem cells” (Bioorg Med Chem, 2008) come the findings set out here.

Activity calls are given as the source filed them. The calls are words filed in the database; no cut-off is given here.

The subject of this assay is Mesenchymal stem cell. Put plainly: Induction of proliferation of rat mesenchymal stem cells by MTT assay. The format is functional, cell-based. On the technique in general: Tetrazolium dyes change colour on reduction, which living cells bring about.

On to `CCC/C=C1\OC(=O)C2=C1CCC=C2`, for which the result was Active.

`CC/C=C1\OC(=O)C2=C1C=CC(O)C2O` (configuration not stated): the result was Active.
